Test results: ChEMBL document CHEMBL2401692, “Synthesis, structure-activity relationships, and in vivo efficacy of the novel potent and selective anaplastic lymphoma kinase (ALK) inhibitor 5-chloro-N2-(2-isopropoxy-5-methyl-4-(piperidin-4-yl)phenyl)-N4-(2-(isopropylsulfonyl)phenyl)pyrimidine-2,4-diamine (LDK378) currently in phase 1 and phase …” (J Med Chem, 2013)
Values after ≈ are worked out from the molar mass of the structure shown.

Experiments:
BaF3 = assay: cells; details: Mus musculus
KARPAS-299 = assay: cells; details: Homo sapiens
[1] = Intrinsic clearance in rat liver microsomes; type: ADME, Microsome; details: read-out: CLH
Cytochrome P450 3A4 = Cytochrome P450 3A4 (Homo sapiens, UniProt P08684); assay: Inhibition of CYP3A4 in human liver microsomes using midazolam as substrate by LC-MS/MS analysis; type: ADME, Microsome
[2] = Intrinsic clearance in mouse liver microsomes; type: ADME, Microsome; details: read-out: CLH
[3] = Solubility of the compound […] at pH 6.8; type: physicochemical
[4] = Intrinsic clearance in human liver microsomes; type: ADME, Microsome; details: read-out: CLH
[5] = biological target: T1, Voltage-gated inwardly rectifying potassium channel KCNH2 (Homo sapiens, UniProt Q12809)
Description: Inhibition of human ERG by dofetilide binding assay

[6] = biological target: T1, Voltage-gated inwardly rectifying potassium channel KCNH2; assay: Inhibition of human ERG by patch-clamp technique
[7] = Oral bioavailability in Sprague-Dawley rat at 10 mg/kg; type: ADME, organism-based; details: in vivo

T1 sequence (Q12809 whole entry): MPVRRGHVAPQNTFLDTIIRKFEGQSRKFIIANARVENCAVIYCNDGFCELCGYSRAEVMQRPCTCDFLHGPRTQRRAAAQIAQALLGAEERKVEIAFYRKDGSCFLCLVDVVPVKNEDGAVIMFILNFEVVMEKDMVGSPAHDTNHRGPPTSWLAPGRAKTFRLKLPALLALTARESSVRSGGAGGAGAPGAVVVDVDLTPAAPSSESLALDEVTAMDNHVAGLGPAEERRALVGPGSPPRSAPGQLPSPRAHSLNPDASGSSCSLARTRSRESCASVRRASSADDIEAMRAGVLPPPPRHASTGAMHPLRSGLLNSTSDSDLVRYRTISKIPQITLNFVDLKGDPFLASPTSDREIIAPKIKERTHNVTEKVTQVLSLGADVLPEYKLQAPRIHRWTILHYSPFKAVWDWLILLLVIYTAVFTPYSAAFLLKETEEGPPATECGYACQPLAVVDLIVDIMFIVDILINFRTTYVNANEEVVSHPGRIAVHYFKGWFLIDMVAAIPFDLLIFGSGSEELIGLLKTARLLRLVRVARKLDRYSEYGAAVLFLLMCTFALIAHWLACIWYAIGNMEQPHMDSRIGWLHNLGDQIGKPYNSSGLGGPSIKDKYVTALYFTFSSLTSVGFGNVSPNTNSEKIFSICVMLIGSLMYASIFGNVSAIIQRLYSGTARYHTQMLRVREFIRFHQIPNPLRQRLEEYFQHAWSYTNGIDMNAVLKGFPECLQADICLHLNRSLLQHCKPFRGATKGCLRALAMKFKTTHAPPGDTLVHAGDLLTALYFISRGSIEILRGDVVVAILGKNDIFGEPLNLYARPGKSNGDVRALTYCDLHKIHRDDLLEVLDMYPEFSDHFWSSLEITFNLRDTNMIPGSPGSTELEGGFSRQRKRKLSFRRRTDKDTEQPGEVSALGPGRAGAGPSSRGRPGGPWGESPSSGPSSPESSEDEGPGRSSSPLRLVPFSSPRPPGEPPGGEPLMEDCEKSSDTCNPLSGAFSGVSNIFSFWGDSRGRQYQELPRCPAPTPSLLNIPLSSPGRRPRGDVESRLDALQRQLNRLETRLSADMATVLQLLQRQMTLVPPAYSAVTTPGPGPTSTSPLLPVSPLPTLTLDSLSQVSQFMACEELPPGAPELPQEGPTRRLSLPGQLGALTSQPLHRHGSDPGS
Cytochrome P450 3A4, sequence (P08684 whole entry): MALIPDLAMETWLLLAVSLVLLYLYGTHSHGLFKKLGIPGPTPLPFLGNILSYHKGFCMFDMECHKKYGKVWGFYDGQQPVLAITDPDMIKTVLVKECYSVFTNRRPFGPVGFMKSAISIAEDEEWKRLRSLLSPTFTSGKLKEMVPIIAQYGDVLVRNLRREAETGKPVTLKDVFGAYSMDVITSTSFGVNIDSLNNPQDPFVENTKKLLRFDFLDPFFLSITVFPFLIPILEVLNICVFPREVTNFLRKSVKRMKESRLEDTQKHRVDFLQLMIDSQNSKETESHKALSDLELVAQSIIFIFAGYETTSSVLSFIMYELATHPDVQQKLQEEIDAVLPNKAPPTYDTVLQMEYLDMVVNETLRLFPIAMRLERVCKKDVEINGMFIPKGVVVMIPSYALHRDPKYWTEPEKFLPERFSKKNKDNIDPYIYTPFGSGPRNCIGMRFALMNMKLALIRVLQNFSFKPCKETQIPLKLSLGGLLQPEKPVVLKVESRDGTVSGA

Compound | IC50 (BaF3) [nM] | IC50 (KARPAS-299) [nM] | microsomal CLint [1] [µL/min/mg] | INH (Cytochrome P450 3A4) [µM] | microsomal CLint [2] [µL/min/mg] | solubility [3] [µM] | microsomal CLint [4] [µL/min/mg] | IC50 [5] [nM] | IC50 [6] [nM] | bioavailability [7] [%]
Cc1cc(Nc2cc(Nc3ccccc3S(=O)(=O)C(C)C)c(Cl)cn2)c(OC(C)C)cc1C1CCN(C)CC1 | 5410 | 5510 |  |  |  |  |  |  |  | 
Cc1cc(Nc2ncc(Cl)c(Nc3ccccc3S(=O)(=O)C(C)C)n2)c(OC(C)C)cc1C1CCN(CC(=O)O)CC1 | > 10000 | 15.3 |  |  |  |  |  |  |  | 
Cc1cc(Nc2ncc(Cl)c(Nc3ccccc3S(=O)(=O)N(C)C)n2)c(OC(C)C)cc1C1CCN(C)CC1 | 1190 | 14.3 |  |  |  |  |  |  |  | 
Cc1cc(Nc2ncc(Cl)c(Nc3ccccc3S(=O)(=O)C(C)C)n2)c(OC2CCC2)cc1C1CCNCC1 | 2520 | 13.1 | 15 | 7.3 | 15 | < 2 | 15 |  |  | 
Cc1cc(Nc2ncc(Cl)c(Nc3ccccc3S(=O)(=O)C(C)C)n2)c(OC(C)C)cc1C1CCN(C(=O)CN(C)C)CC1 | 2740 | 21.7 | 21 | 0.6 | 45 | 4 (≈ 2.57 µg/mL) | 46 |  |  | 
CCN1CCC(c2cc(OC(C)C)c(Nc3ncc(Cl)c(Nc4ccccc4S(=O)(=O)C(C)C)n3)cc2C)CC1 | 4120 | 11.1 |  |  |  |  |  |  |  | 
Cc1cc(Nc2ncc(Cl)c(Nc3ccccc3S(=O)(=O)C3CCC3)n2)c(OC(C)C)cc1C1CCNCC1 | 2460 | 13.5 |  |  |  |  |  |  |  | 
Cc1cc(Nc2ncc(Cl)c(Nc3ccccc3S(=O)(=O)C(C)C)n2)c(OC(C)C)cc1C1CCN(CC(N)=O)CC1 | 7540 | 7.9 |  |  |  |  |  |  |  | 
COCCN1CCC(c2cc(OC(C)C)c(Nc3ncc(C)c(Nc4ccccc4S(=O)(=O)C(C)C)n3)cc2C)CC1 | 4410 | 22.4 |  |  |  |  |  |  |  | 
COCCN1CCC(c2cc(OC(C)C)c(Nc3ncc(Cl)c(Nc4ccccc4S(=O)(=O)C(C)C)n3)cc2C)CC1 | 4970 | 16.1 |  |  |  |  |  |  |  | 
CC(C)Oc1nc(C2CCNCC2)ncc1Nc1ncc(Cl)c(Nc2ccccc2S(=O)(=O)C(C)C)n1 | 3800 | 33.3 | 18 | 9.3 | 21 | 138 (≈ 75.4 µg/mL) | 16 | 400 |  | 
Cc1cc(Nc2ncc(Cl)c(Nc3ccccc3S(=O)(=O)C(C)C)n2)c(OC(C)C)cc1C1CCN(C2CCN(C)CC2)CC1 | 1420 | 100 |  |  |  |  |  |  |  | 
Cc1cc(Nc2ncc(Cl)c(Nc3ccccc3S(=O)(=O)C(C)C)n2)c(OC(C)C)cc1C1CCN(CCO)CC1 | 4340 |  | 14 | 2.5 | 15 | 36 (≈ 21.7 µg/mL) | 15 |  |  | 
CCN1CCC(c2cc(OC(C)C)c(Nc3ncc(C)c(Nc4ccccc4S(=O)(=O)C(C)C)n3)cc2C)CC1 | 4000 | 10.5 |  |  |  |  |  |  |  | 
Cc1cc(Nc2ncc(Cl)c(Nc3ccccc3S(=O)(=O)C(C)C)n2)c(OC(C)C)cc1C1CCNC(=O)C1 (centres undefined) | > 10000 | 38.4 |  |  |  |  |  |  |  | 
Cc1cc(Nc2ncc(C)c(Nc3ccccc3S(=O)(=O)C(C)C)n2)c(OC(C)C)cc1C1CCN(CCO)CC1 | > 10000 | 23.8 |  |  |  |  |  |  |  | 
Cc1cc(Nc2ncc(Cl)c(Nc3ccccc3S(=O)(=O)C(C)C)n2)c(OC(C)C)cc1C1CCN(C)CC1 | 4000 | 11.2 | 4 | 2.1 | 15 | 64 (≈ 36.6 µg/mL) | 17 |  |  | 
CC(C)Oc1cc(N2CCC(N3CCN(C)CC3)CC2)ccc1Nc1ncc(Cl)c(Nc2ccccc2S(=O)(=O)C(C)C)n1 | 3400 | 25.5 |  |  |  |  |  |  |  | 
Cc1cc(Nc2ncc(Cl)c(Nc3ccccc3S(=O)(=O)C(C)C)n2)c(OC(C)C)cc1C1CCN(C(C)C)CC1 | 3860 | 14.5 |  |  |  |  |  |  |  | 
Cc1cc(Nc2ncc(C)c(Nc3ccccc3S(=O)(=O)C(C)C)n2)c(OC(C)C)cc1C1CCNCC1 | 2880 | 13.1 |  |  |  |  |  |  |  | 
Cc1cc(Nc2ncc(Cl)c(Nc3ccccc3S(=O)(=O)C(C)C)n2)c(OC(C)C)cc1C1CCN(CC(F)F)CC1 | > 10000 | 294 |  |  |  |  |  |  |  | 
Cc1cc(Nc2ncc(C)c(Nc3ccccc3S(=O)(=O)C(C)C)n2)c(OC(C)C)cc1C1CCN(C)CC1 | 4080 | 15.6 | 14 | 9.8 | 15 | 144 (≈ 79.5 µg/mL) | 8 | 1100 | 20000 | 
CC(C)Oc1cc(C2CCNCC2)ccc1Nc1ncc(Cl)c(Nc2ccccc2S(=O)(=O)C(C)C)n1 | 3010 | 7.8 | 15 | 1.4 | 15 | 4 (≈ 2.18 µg/mL) | 15 |  |  | 12
